Measurements as given in ChEMBL document CHEMBL1201862, “PubChem BioAssay data set” (2004).
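Step 1: Grow cells in 96-well plates. Step 2: Expose to compound for 48 hours at 5 concentrations. Step 3: Interpolate endpoints linearly; if unreached, use highest concentration. GI50: concentration for 50% inhibition of growth.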 Calls of active or inactive are those of the source. Rule as the data show it: active = GI50 up to about 1.1 µM and inactive = higher.

Experiments:
Test in all cases: DTP human tumour cell line panel, 48 h
T47D = test system: T47D
OVCAR-5 = test system: OVCAR-5
HCT-15 = test system: HCT-15
EKVX = test system: EKVX
NCI/ADR-RES = test system: NCI/ADR-RES
Malme-3M = test system: Malme-3M
TK-10 = test system: TK-10
MDA-N = test system: MDA-N
SW-620 = test system: SW-620
NCI-H23 = test system: NCI-H23
ACHN = test system: ACHN
UACC-62 = test system: UACC-62
MOLT-4 = test system: MOLT-4
HCT-116 = test system: HCT-116
MDA-MB-435 = test system: MDA-MB-435
PC-3 = test system: PC-3
BT-549 = test system: BT-549
SK-MEL-2 = test system: SK-MEL-2
OVCAR-4 = test system: OVCAR-4
786-0 = test system: 786-0
SK-MEL-5 = test system: SK-MEL-5
OVCAR-3 = test system: OVCAR-3
DU-145 = test system: DU-145
SNB-19 = test system: SNB-19
OVCAR-8 = test system: OVCAR-8
HCC 2998 = test system: HCC 2998
HOP-92 = test system: HOP-92
UACC-257 = test system: UACC-257
IGROV-1 = test system: IGROV-1
SF-268 = test system: SF-268
HOP-62 = test system: HOP-62
HT-29 = test system: HT-29
Hs-578T = test system: Hs-578T
SK-OV-3 = test system: SK-OV-3
CAKI-1 = test system: CAKI-1
M14 = test system: M14
RPMI-8226 = test system: RPMI-8226
A549 = test system: A549
A498 = test system: A498
MDA-MB-231 = test system: MDA-MB-231
NCI-H460 = test system: NCI-H460
SNB-75 = test system: SNB-75
COLO 205 = test system: COLO 205
MCF7 = test system: MCF7
NCI-H522 = test system: NCI-H522
SF-295 = test system: SF-295
KM12 = test system: KM12
K562 = test system: K562
RXF 393 = test system: RXF 393
UO-31 = test system: UO-31
SK-MEL-28 = test system: SK-MEL-28
U-251 = test system: U-251
CCRF-CEM = test system: CCRF-CEM
SN12C = test system: SN12C
LOX IMVI = test system: LOX IMVI
NCI-H226 = test system: NCI-H226
SF-539 = test system: SF-539
HL-60 = test system: HL-60
SR = test system: SR

SMILES: C[C@@H]1OC(=O)C[C@H]2CC(=O)N(CCC3CN(C(=O)OCc4ccccc4)c4ccccc43)C[C@@H]21 (stereo not given in full)
- GI50 (T47D): > 100 µM (inactive)
- GI50 (OVCAR-5): > 100 µM (inactive)
- GI50 (HCT-15): > 100 µM
- GI50 (EKVX): > 100 µM (inactive)
- GI50 (NCI/ADR-RES): > 100 µM (inactive)
- GI50 (Malme-3M): > 100 µM (inactive)
- GI50 (TK-10): > 100 µM (inactive)
- GI50 (MDA-N): > 100 µM (inactive)
- GI50 (SW-620): > 100 µM (inactive)
- GI50 (NCI-H23): > 100 µM (inactive)
- GI50 (ACHN): > 100 µM (inactive)
- GI50 (UACC-62): > 100 µM (inactive)
- GI50 (MOLT-4): > 100 µM (inactive)
- GI50 (HCT-116): > 100 µM (inactive)
- GI50 (MDA-MB-435): > 100 µM (inactive)
- GI50 (PC-3): > 100 µM (inactive)
- GI50 (BT-549): > 100 µM (inactive)
- GI50 (SK-MEL-2): > 100 µM (inactive)
- GI50 (OVCAR-4): > 100 µM (inactive)
- GI50 (786-0): > 100 µM (inactive)
- GI50 (SK-MEL-5): > 100 µM (inactive)
- GI50 (OVCAR-3): > 100 µM (inactive)
- GI50 (DU-145): > 100 µM (inactive)
- GI50 (SNB-19): > 100 µM (inactive)
- GI50 (OVCAR-8): > 100 µM (inactive)
- GI50 (HCC 2998): > 100 µM (inactive)
- GI50 (HOP-92): > 100 µM (inactive)
- GI50 (UACC-257): > 100 µM (inactive)
- GI50 (IGROV-1): > 100 µM (inactive)
- GI50 (SF-268): > 100 µM (inactive)
- GI50 (HOP-62): > 100 µM (inactive)
- GI50 (HT-29): > 100 µM (inactive)
- GI50 (Hs-578T): > 100 µM (inactive)
- GI50 (SK-OV-3): > 100 µM (inactive)
- GI50 (CAKI-1): > 100 µM (inactive)
- GI50 (M14): > 100 µM (inactive)
- GI50 (RPMI-8226): > 100 µM (inactive)
- GI50 (A549): > 100 µM (inactive)
- GI50 (A498): > 100 µM (inactive)
- GI50 (MDA-MB-231): > 100 µM (inactive)
- GI50 (NCI-H460): > 100 µM (inactive)
- GI50 (SNB-75): > 100 µM (inactive)
- GI50 (COLO 205): > 100 µM (inactive)
- GI50 (MCF7): > 100 µM (inactive)
- GI50 (NCI-H522): > 100 µM (inactive)
- GI50 (SF-295): > 100 µM (inactive)
- GI50 (KM12): > 100 µM (inactive)
- GI50 (K562): > 100 µM (inactive)
- GI50 (RXF 393): > 100 µM (inactive)
- GI50 (UO-31): > 100 µM (inactive)
- GI50 (SK-MEL-28): > 100 µM (inactive)
- GI50 (U-251): > 100 µM (inactive)

SMILES: Cc1cc(N)c2cc(NC(=O)Nc3ccc4nc(C)cc(N)c4c3)ccc2n1
- GI50 (T47D): > 100 µM (inactive)
- GI50 (OVCAR-5): > 100 µM (inactive)
- GI50 (HCT-15): > 100 µM
- GI50 (EKVX): > 100 µM (inactive)
- GI50 (NCI/ADR-RES): > 100 µM (inactive)
- GI50 (Malme-3M): > 100 µM (inactive)
- GI50 (TK-10): > 100 µM (inactive)
- GI50 (MDA-N): > 100 µM (inactive)
- GI50 (CCRF-CEM): > 100 µM (inactive)
- GI50 (SW-620): > 100 µM (inactive)
- GI50 (NCI-H23): > 100 µM (inactive)
- GI50 (ACHN): > 100 µM (inactive)
- GI50 (SN12C): > 100 µM (inactive)
- GI50 (UACC-62): > 100 µM (inactive)
- GI50 (MOLT-4): > 100 µM (inactive)
- GI50 (HCT-116): > 100 µM (inactive)
- GI50 (MDA-MB-435): > 100 µM (inactive)
- GI50 (PC-3): > 100 µM (inactive)
- GI50 (BT-549): > 100 µM (inactive)
- GI50 (SK-MEL-2): > 100 µM (inactive)
- GI50 (LOX IMVI): > 100 µM (inactive)
- GI50 (OVCAR-4): > 100 µM (inactive)
- GI50 (786-0): > 100 µM (inactive)
- GI50 (SK-MEL-5): 70.1 µM (inactive)
- GI50 (OVCAR-3): > 100 µM (inactive)
- GI50 (DU-145): > 100 µM (inactive)
- GI50 (SNB-19): > 100 µM (inactive)
- GI50 (OVCAR-8): > 100 µM (inactive)
- GI50 (HCC 2998): > 100 µM (inactive)
- GI50 (HOP-92): > 100 µM (inactive)
- GI50 (UACC-257): > 100 µM (inactive)
- GI50 (IGROV-1): > 100 µM (inactive)
- GI50 (SF-268): > 100 µM (inactive)
- GI50 (HOP-62): 61.8 µM (inactive)
- GI50 (HT-29): > 100 µM (inactive)
- GI50 (Hs-578T): > 100 µM (inactive)
- GI50 (NCI-H226): > 100 µM (inactive)
- GI50 (SK-OV-3): > 100 µM (inactive)
- GI50 (CAKI-1): > 100 µM (inactive)
- GI50 (M14): > 100 µM (inactive)
- GI50 (RPMI-8226): > 100 µM (inactive)
- GI50 (A549): > 100 µM (inactive)
- GI50 (A498): > 100 µM (inactive)
- GI50 (MDA-MB-231): 47.8 µM (inactive)
- GI50 (NCI-H460): 32.4 µM (inactive)
- GI50 (COLO 205): > 100 µM (inactive)
- GI50 (MCF7): > 100 µM (inactive)
- GI50 (NCI-H522): > 100 µM (inactive)
- GI50 (SF-295): 89.5 µM (inactive)
- GI50 (KM12): > 100 µM (inactive)
- GI50 (K562): > 100 µM (inactive)
- GI50 (UO-31): > 100 µM (inactive)
- GI50 (SK-MEL-28): > 100 µM (inactive)
- GI50 (U-251): 70.6 µM (inactive)

SMILES: CP(C)(=S)P(C)(C)=S
- GI50 (T47D): > 100 µM (inactive)
- GI50 (OVCAR-5): > 100 µM (inactive)
- GI50 (HCT-15): > 100 µM
- GI50 (EKVX): > 100 µM (inactive)
- GI50 (NCI/ADR-RES): > 100 µM (inactive)
- GI50 (Malme-3M): > 100 µM (inactive)
- GI50 (TK-10): > 100 µM (inactive)
- GI50 (MDA-N): > 100 µM (inactive)
- GI50 (CCRF-CEM): > 100 µM (inactive)
- GI50 (SW-620): > 100 µM (inactive)
- GI50 (NCI-H23): > 100 µM (inactive)
- GI50 (ACHN): > 100 µM (inactive)
- GI50 (SN12C): > 100 µM (inactive)
- GI50 (UACC-62): > 100 µM (inactive)
- GI50 (MOLT-4): > 100 µM (inactive)
- GI50 (HCT-116): > 100 µM (inactive)
- GI50 (SF-539): > 100 µM (inactive)
- GI50 (PC-3): > 100 µM (inactive)
- GI50 (BT-549): > 100 µM (inactive)
- GI50 (SK-MEL-2): > 100 µM (inactive)
- GI50 (LOX IMVI): 4.37 µM (inactive)
- GI50 (OVCAR-4): > 100 µM (inactive)
- GI50 (786-0): > 100 µM (inactive)
- GI50 (SK-MEL-5): > 100 µM (inactive)
- GI50 (DU-145): > 100 µM (inactive)
- GI50 (SNB-19): > 100 µM (inactive)
- GI50 (OVCAR-8): > 100 µM (inactive)
- GI50 (HCC 2998): > 100 µM (inactive)
- GI50 (UACC-257): > 100 µM (inactive)
- GI50 (IGROV-1): 78.5 µM (inactive)
- GI50 (SF-268): > 100 µM (inactive)
- GI50 (HOP-62): > 100 µM (inactive)
- GI50 (HT-29): > 100 µM (inactive)
- GI50 (Hs-578T): > 100 µM (inactive)
- GI50 (HL-60): > 100 µM (inactive)
- GI50 (NCI-H226): > 100 µM (inactive)
- GI50 (SK-OV-3): > 100 µM (inactive)
- GI50 (CAKI-1): > 100 µM (inactive)
- GI50 (M14): > 100 µM (inactive)
- GI50 (RPMI-8226): > 100 µM (inactive)
- GI50 (A549): > 100 µM (inactive)
- GI50 (MDA-MB-231): > 100 µM (inactive)
- GI50 (NCI-H460): > 100 µM (inactive)
- GI50 (SNB-75): > 100 µM (inactive)
- GI50 (COLO 205): > 100 µM (inactive)
- GI50 (MCF7): > 100 µM (inactive)
- GI50 (NCI-H522): > 100 µM (inactive)
- GI50 (SF-295): > 100 µM (inactive)
- GI50 (K562): > 100 µM (inactive)
- GI50 (RXF 393): > 100 µM (inactive)
- GI50 (SR): > 100 µM (inactive)
- GI50 (UO-31): > 100 µM (inactive)
- GI50 (SK-MEL-28): > 100 µM (inactive)
- GI50 (U-251): > 100 µM (inactive)
